Laboratory results reported in patent publication US7655442B2, “Method for stabilizing macrolide compounds” (Eisai R&D Management Co., Ltd., priority 2004, dated 2010).
Where two headings read alike, the source gives them in different places.

Experiments:
[1] = Effects of various cyclodextrins on stabilization of macrolide compound 11107B in Dulbecco's PBS (-) at 25° C. (HPLC purity); format: physicochemical
Procedure: The macrolide compound 11107B (hereinafter sometimes abbreviated as 11107B) and various cyclodextrins were dissolved in concentrations of 0.1 mg/mL and 10 mg/mL, respectively, in Dulbecco's PBS (−). The 11107B solution and cyclodextrin solution were mixed in equal volumes, and incubation was immediately begun in at thermostatic incubator at 25° C. The solution was sampled at the start (0 hour) and after 24 and 48 hours had elapsed, the samples were analyzed by high performance liquid chromatography (HPLC) under the following analysis conditions (A), and the purity of the 11107B was calculated from the following equation using the chromatogram thus obtained.
<HPLC Analysis Conditions (A)>
Column: L-column, 4.6×150 mm, Chemicals Evaluation and Research Institute
Column temperature: 35° C.
Detection wavelength: 241 nm
Mobile phase A: 0.1% (v/v) formic acid•10% (v/v) acetonitrile
Mobile phase B: 0.1% (v/v) formic acid•90% (v/v) acetonitrile
Gradient program: B=10% (start)→B=40% (15 minutes)→B=100% (20 minutes)→B=10% (20.01 minutes)→B=10% (23 minutes, stop)<
(§1) <Calculation Equation> 11107B purity(%)=[peak surface area value of 11107B/(sum of peak surface area value of 11107B+peak surface area value of impurities and decomposition products)]×100

[2] = format: physicochemical
Procedure: The macrolide compound 11107B was dissolved in Dulbecco's PBS (−) in a concentration of 0.1 mg/mL, and β-CD in concentrations of 10, 3, 1, and 0.3 mg/mL. The 11107B solution and β-CD solution were mixed in equal volumes, and incubation was immediately begun in a 40° C. thermostatic incubator. The solution was sampled at the start (0 hour) and after 1, 2, 4 and 6 hours had elapsed, the samples were analyzed by HPLC under the analysis conditions (A) of Example 1, and the concentration of the 11107B was calculated. Since the plot of the 11107B concentration versus elapsed time was substantially linear, it was concluded that decomposition was occurring in pseudo first-order reaction, and the apparent decomposition rate constant kobs was calculated from the slope thereof. kobs was termed k0 when no β-CD was prevent. According to a report by Ma et al. (J. Pharm. Sci. (2000), 89 (2), 275-287), 1/(k0-kobs) was plotted against the inverse of the β-CD concentration, kc, which is kobs when a large excess of β-CD was present, was calculated from an intercept thereof, and the stabilization constant Kc was calculated from the slope.

[3] = Effect of β-CD and methylated β-CD on stabilization of 11107B in Dulbecco's PBS (-) at 25° C. (HPLC purity); format: physicochemical
Procedure: as §1
The macrolide compound 11107B and β-CD or methylated β-CD were dissolved in Dulbecco's PBS (−) in concentrations of 0.1 mg/mL and 10 mg/mL, respectively. The 11107B solution and β-CD solution were mixed in equal volumes, and incubation was immediately begun in thermostatic incubator at 25° C. The solution was sampled at the start (0 hour) and after 24, 48 and 120 hours had elapsed, and the samples were analyzed by HPLC under the following analysis conditions (B). The purity of the 11107B was calculated from the equation in Example 1 using the resulting chromatogram.
<HPLC Analysis Conditions (B)>
Column: Develosil ODS UG-3, 4.6×50 mm, 3 μm (made by Nomura Chemical)
Column temperature: 40° C.
Detection wavelength: 240 nm
Eluate: water/methanol gradient
• A=water, B=methanol • 45-55% B (0 to 5 minutes), 55% B (5 to 13 minutes) • 55-70% B (13 to 21 minutes), 45% B (21 to 25 minutes) Retention time: 13 minutes (11107B)

[4] = format: physicochemical; conditions: for Purity of macorolide compound 11107B: freeze-dried preparation
Procedure: as §1
Lactose monohydrate was dissolved in purified water in a concentration of 10 mg/mL and HP-β-CD in concentrations of 0, 10 and 200 mg/mL. The macrolide compound 11107B was dissolved in a concentration of 0.1 mg/mL in each of these three types of solution. 1 mL of each solution was put into vials and freeze-dried. The freeze-dried preparations thus obtained were stored for one month at −20° C., 40° C. and 60° C., after which 1 mL of 50% acetonitrile aqueous solution was added to each vial to dissolve the preparation. This product was analyzed by HPLC analysis under the conditions (A) of Example 1, and the purity of the 11107B was calculated according to the equation of Example 1.

[5] = β-CD concentration 0.15 mg/mL, PBS (-), 40° C.
[6] = β-CD concentration 0.5 mg/mL, PBS (-), 40° C.
[7] = β-CD concentration 1.5 mg/mL, PBS (-), 40° C.
[8] = β-CD concentration 5 mg/mL, PBS (-), 40° C.

In the case of `CCC(O)C(C)C1OC1CC(C)/C=C/C=C(\C)C1OC(=O)CC(O)CCC(C)(O)C(OC(C)=O)/C=C/C1C` (stereo not drawn) [11107B, (8E,12E,14E)-7-acetoxy-3,6,21-trihydroxy-6,10,12,16,20-pentamethyl-18,19-epoxytricosa-8,12,14-trien-11-olide], the “Purity of macorolide compound 11107B” value ([1]; CD not added, 0 h, Dulbecco's PBS (-)) is reported as 99%, the “Purity of macorolide compound 11107B” value ([1]; CD not added, 24 h, Dulbecco's PBS (-)) is reported as 62% and the “Purity of macorolide compound 11107B” value ([1]; CD not added, 48 h, Dulbecco's PBS (-)) is reported as 35%. The “Purity of macorolide compound 11107B” value ([1]; HP-α-CD (10 mg/mL solution mixed in equal volume with 0.1 mg/mL 11107B), 0 h, PBS (-)) was 99%, the “Purity of macorolide compound 11107B” value ([1]; HP-α-CD (10 mg/mL solution mixed in equal volume with 0.1 mg/mL 11107B), 24 h, PBS (-)) was 71% and the “Purity of macorolide compound 11107B” value ([1]; HP-α-CD (10 mg/mL solution mixed in equal volume with 0.1 mg/mL 11107B), 48 h, PBS (-)) was 47%. For the same compound, the “Purity of macorolide compound 11107B” value ([1]; HP-β-CD (10 mg/mL solution mixed in equal volume with 0.1 mg/mL 11107B), 0 h, PBS (-)) was 100%, the “Purity of macorolide compound 11107B” value ([1]; HP-β-CD (10 mg/mL solution mixed in equal volume with 0.1 mg/mL 11107B), 24 h, PBS (-)) was 93% and the “Purity of macorolide compound 11107B” value ([1]; HP-β-CD (10 mg/mL solution mixed in equal volume with 0.1 mg/mL 11107B), 48 h, PBS (-)) was 86%. The “Purity of macorolide compound 11107B” value ([1]; HP-γ-CD (10 mg/mL solution mixed in equal volume with 0.1 mg/mL 11107B), 0 h, PBS (-)) was 99%, the “Purity of macorolide compound 11107B” value ([1]; HP-γ-CD (10 mg/mL solution mixed in equal volume with 0.1 mg/mL 11107B), 24 h, PBS (-)) was 83% and the “Purity of macorolide compound 11107B” value ([1]; HP-γ-CD (10 mg/mL solution mixed in equal volume with 0.1 mg/mL 11107B), 48 h, PBS (-)) was 67%. For the same compound, the “Purity of macorolide compound 11107B” value ([1]; α-CD (10 mg/mL solution mixed in equal volume with 0.1 mg/mL 11107B), 0 h, PBS (-)) was 99%, the “Purity of macorolide compound 11107B” value ([1]; α-CD (10 mg/mL solution mixed in equal volume with 0.1 mg/mL 11107B), 24 h, PBS (-)) was 71% and the “Purity of macorolide compound 11107B” value ([1]; α-CD (10 mg/mL solution mixed in equal volume with 0.1 mg/mL 11107B), 48 h, PBS (-)) was 47%. The “Purity of macorolide compound 11107B” value ([1]; β-CD (10 mg/mL solution mixed in equal volume with 0.1 mg/mL 11107B), 0 h, PBS (-)) was 100%, the “Purity of macorolide compound 11107B” value ([1]; β-CD (10 mg/mL solution mixed in equal volume with 0.1 mg/mL 11107B), 24 h, PBS (-)) was 95% and the “Purity of macorolide compound 11107B” value ([1]; β-CD (10 mg/mL solution mixed in equal volume with 0.1 mg/mL 11107B), 48 h, PBS (-)) was 90%. For the same compound, the “Purity of macorolide compound 11107B” value ([1]; γ-CD (10 mg/mL solution mixed in equal volume with 0.1 mg/mL 11107B), 0 h, PBS (-)) was 100%, the “Purity of macorolide compound 11107B” value ([1]; γ-CD (10 mg/mL solution mixed in equal volume with 0.1 mg/mL 11107B), 24 h, PBS (-)) was 88% and the “Purity of macorolide compound 11107B” value ([1]; γ-CD (10 mg/mL solution mixed in equal volume with 0.1 mg/mL 11107B), 48 h, PBS (-)) was 77%. The “stabilization constant Kc” value ([2]; 0.05 mg/mL) was ≥ 1500, the “k0 (kobs when no β-CD was present)” value ([2]; PBS (-), 40° C., estimated) was 0.152 h⁻¹ and the “kc (kobs when a large excess of β-CD was present)” value ([2]; from intercept of 1/(k0-kobs) versus inverse of β-CD concentration, PBS (-), 40° C.) was 0.004 h⁻¹. The “kobs (apparent decomposition rate constant)” value ([2]; β-CD concentration 0 mg/mL, PBS (-), 40° C.) was 0.152 h⁻¹, the “1/(k0 − kobs)” value [2, 5] was 39.057 and the “k0 − kobs” value [2, 5] was 0.026. For the same compound, the “kobs (apparent decomposition rate constant)” value [2, 5] was 0.126 h⁻¹, the “1/(k0 − kobs)” value [2, 6] was 16.736 and the “k0 − kobs” value [2, 6] was 0.060. For the same compound, the “kobs (apparent decomposition rate constant)” value [2, 6] was 0.092 h⁻¹, the “1/(k0 − kobs)” value [2, 7] was 9.971 and the “k0 − kobs” value [2, 7] was 0.100. The “kobs (apparent decomposition rate constant)” value [2, 7] was 0.052 h⁻¹, the “1/(k0 − kobs)” value [2, 8] was 7.590 and the “k0 − kobs” value [2, 8] was 0.132. The “kobs (apparent decomposition rate constant)” value [2, 8] was 0.020 h⁻¹, the “decomposition rate of included 11107B relative to 11107B that was not included” value ([2]; β-CD inclusion, PBS (-), 40° C.) was 1/30 and the “Purity of macorolide compound 11107B” value ([3]; CD not added, 0 h) was 98%. For the same compound, the “Purity of macorolide compound 11107B” value ([3]; CD not added, 24 h) was 59%, the “Purity of macorolide compound 11107B” value ([3]; CD not added, 48 h) was 34% and the “Purity of macorolide compound 11107B” value ([3]; CD not added, 120 h) was 3%. The “Purity of macorolide compound 11107B” value ([3]; methylated β-CD (10 mg/mL solution mixed in equal volume with 0.1 mg/mL 11107B), 0 h) was 98%, the “Purity of macorolide compound 11107B” value ([3]; methylated β-CD (10 mg/mL solution mixed in equal volume with 0.1 mg/mL 11107B), 24 h) was 95% and the “Purity of macorolide compound 11107B” value ([3]; methylated β-CD (10 mg/mL solution mixed in equal volume with 0.1 mg/mL 11107B), 48 h) was 92%. For the same compound, the “Purity of macorolide compound 11107B” value ([3]; methylated β-CD (10 mg/mL solution mixed in equal volume with 0.1 mg/mL 11107B), 120 h) was 80%, the “Purity of macorolide compound 11107B” value ([3]; β-CD (10 mg/mL solution mixed in equal volume with 0.1 mg/mL 11107B), 0 h) was 98% and the “Purity of macorolide compound 11107B” value ([3]; β-CD (10 mg/mL solution mixed in equal volume with 0.1 mg/mL 11107B), 24 h) was 95%. The “Purity of macorolide compound 11107B” value ([3]; β-CD (10 mg/mL solution mixed in equal volume with 0.1 mg/mL 11107B), 48 h) was 90%, the “Purity of macorolide compound 11107B” value ([3]; β-CD (10 mg/mL solution mixed in equal volume with 0.1 mg/mL 11107B), 120 h) was 74% and the “stability in a solid form in a freeze-dried preparation on addition of cyclodextrin” value [4] was “sufficiently stabilized”. For the same compound, the “Purity of macorolide compound 11107B” value ([4]; HP-β-CD concentration 10 mg/mL, stored one month at 40° C.) was 99.76 ± 0.08%, the “Purity of macorolide compound 11107B” value ([4]; HP-β-CD concentration 10 mg/mL, stored one month at 60° C.) was 98.60 ± 0.06% and the “Purity of macorolide compound 11107B” value ([4]; HP-β-CD concentration 10 mg/mL, stored one month at −20° C.) was 99.73 ± 0.01%. The “Purity of macorolide compound 11107B” value ([4]; HP-β-CD concentration 200 mg/mL, stored one month at 40° C.) was 99.82 ± 0.02%, the “Purity of macorolide compound 11107B” value ([4]; HP-β-CD concentration 200 mg/mL, stored one month at 60° C.) was 98.90 ± 0.05% and the “Purity of macorolide compound 11107B” value ([4]; HP-β-CD concentration 200 mg/mL, stored one month at −20° C.) was 99.70 ± 0.00%. The “Purity of macorolide compound 11107B” value ([4]; HP-β-CD not added, stored one month at 40° C.) was 98.17 ± 0.12%, the “Purity of macorolide compound 11107B” value ([4]; HP-β-CD not added, stored one month at 60° C.) was 94.63 ± 0.11% and the “Purity of macorolide compound 11107B” value ([4]; HP-β-CD not added, stored one month at −20° C.) was 99.56 ± 0.01%.
